According to paper PMC9007350, “Aurintricarboxylic acid is a canonical disruptor of the TAZ-TEAD transcriptional complex” (PLoS ONE, 2022):

Legend:
[1] = target: T1, TAZ-TEAD complex (full-length His-TAZ and FLAG-TEAD4) (Homo sapiens, UniProt Q15561); test: TAZ-TEAD AlphaLISA assay; assay type: binding; conditions: 10 nM TAZ, 15 nM TEAD4
T1 construct: human TEAD4 (1–434) (UniProt—Q15561); strep (N, cleaved yes); made in house; host or cells: Escherichia coli BL21(DE3)pLysS
Excerpt: The cDNAs of human TEAD4 (1–434) (UniProt—Q15561) and TAZ (UniProt—Q9GZV5) were codon-optimized according to a proprietary algorithm developed by DAPCEL, Inc, synthesized, and inserted into the pET-3a vector between restriction sites NdeI and BamHI (GenScript). The final construct contained a N-terminal strep-TEV-FLAG tag for TEAD4, a 6x His tag at the N-terminus and a strep tag at the C-terminus of TAZ (GenScript).
Full-length TAZ and TEAD proteins were used in this assay. The codon-optimized cDNAs yielded sufficient protein amounts to carry out the high-throughput screen (S1A Fig).
Purified full-length His-TAZ and FLAG-TEAD4 proteins were mixed with nickel chelate AlphaLISA Acceptor Beads and anti-FLAG Alpha Donor Beads (PerkinElmer) in alpha assay buffer (10mM Tris pH 8.0, 150mM NaCl, 0.1% BSA, 0.01% Tween 20, 10 mM DTT). To determine the optimum protein concentration that produced the highest total signal intensity, His-TAZ was used at a concentration range of 0 nM to 20 nM and FLAG-TEAD4 at 0.1 nM to 1000 nM. The maximal signal occurred at 10 nM TAZ and 15 nM TEAD4 (S1B Fig). Then, compounds from the library plates were added at a final concentration of 10 μM. The mixtures were incubated in the dark for 2h at room temperature and emission at 615 nm was measured using the alpha-compatible EnSpire (PerkinElmer) and Synergy Neo2 (BioTek) multimode plate readers. […]

[2] = target: T2, YAP/TAZ-binding domain of human TEAD4 (217-434), deacylated (Homo sapiens, UniProt Q15561); test: Surface plasmon resonance; conditions: one-site binding fit of steady-state response versus concentration; read-out: Kd, affinity between TEAD and ATA
T2 construct: made in house
T2 sequence (Q15561 217-434): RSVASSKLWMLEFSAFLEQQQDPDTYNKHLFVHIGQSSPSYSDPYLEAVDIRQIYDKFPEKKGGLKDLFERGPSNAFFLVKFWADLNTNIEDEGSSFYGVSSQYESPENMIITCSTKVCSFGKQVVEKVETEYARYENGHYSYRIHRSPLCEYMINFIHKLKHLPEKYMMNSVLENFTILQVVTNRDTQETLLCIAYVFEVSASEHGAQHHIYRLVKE
Procedure: The YAP/TAZ-binding domain of human TEAD4 (217–434) was deacylated and resuspended in 10 mM acetate buffer pH 5.0. TEAD was immobilized on a CM5 sensor chip (Cytiva, product, BR100530) using the amine coupling kit (Cytiva, product, BR10050) as per manufacturer’s guidelines. Various concentrations of ATA were dissolved in buffer containing 20 mM Tris pH 8.0, 150 mM NaCl, 1.5% DMSO and passed over the reference cell and the cell containing immobilized TEAD, and the resonance responses were recorded.

[3] = target: T3, YAP-TEAD complex (human YAP (61-100) probe, human TEAD4 (217-434)) (Homo sapiens, UniProt Q15561); test: YAP-TEAD fluorescence polarization assay; assay type: binding; conditions: TEAD4 350 nM, YAP probe 25 nM; read-out: IC50, YAP-TEAD FP assay
T3 construct: made in house
T3 sequence (Q15561 217-434, one chain of several): as the sequence (Q15561 217-434) above
Procedure: (§1) Human YAP (61–100), human TAZ (23–57) and mouse Vgll1 (26–51) peptide probes were used; all the probes had carboxyfluorescein labels. Human TEAD4 (217–434) was used in the assay at a concentration of 350 nM and the peptide probe concentration was 25 nM. Disruptors were titrated at concentrations ranging from 0–150 μM to the probe-TEAD complex, and the mixtures were incubated at 25°C for 20 min. Then, polarization measurements were taken using a Victor3 (PerkinElmer) plate reader.

[4] = target: T4, VGLL1-TEAD complex (mouse Vgll1 (26-51) probe, human TEAD4 (217-434)) (Homo sapiens, UniProt Q15561); test: Vgll1-TEAD fluorescence polarization assay; assay type: binding; conditions: TEAD4 350 nM, Vgll1 probe 25 nM
T4 construct: made in house
T4 sequence (Q15561 217-434, one chain of several): as the sequence (Q15561 217-434) above
Procedure: as §1

[5] = tested on: TC/TEAD transcriptional activity in HEK293 cells expressing TAZ-CAMTA1; test: TC/TEAD dual luciferase reporter assay; assay type: cell-based; conditions: ATA 10 μM, 48 h
Procedure: NIH3T3 and HEK293 cells were obtained from the American Type Tissue Collection (ATCC, Manassas, VA) and cultured in DMEM containing 10% fetal bovine serum and penicillin/streptomycin. A TEAD dual luciferase reporter assay was performed as previously described. Cells were treated with vehicle control or ATA (10 μM) for 48 h before measuring the luciferase activity or processing the samples for RNA extraction. Each experiment was repeated at least 2–3 times.

[6] = tested on: CYR61, CTGF, AMOTL2 and ANKRD1 transcripts in TC-expressing NIH3T3 cells; test: qPCR of canonical TAZ target genes; assay type: cell-based, murine; conditions: ATA 10 μM, 48 h
Procedure: NIH3T3 and HEK293 cells were obtained from the American Type Tissue Collection (ATCC, Manassas, VA) and cultured in DMEM containing 10% fetal bovine serum and penicillin/streptomycin. A TEAD dual luciferase reporter assay was performed as previously described. Cells were treated with vehicle control or ATA (10 μM) for 48 h before measuring the luciferase activity or processing the samples for RNA extraction. Each experiment was repeated at least 2-3 times. NIH3T3 cells were used. The extracted RNA (RNeasy Mini, Qiagen) from treated cells was either used for qPCR measurements or sent for bulk RNA-Seq. Sequencing runs were performed on an Illumina HiSeq 4000 sequencer (Genewiz). […] Paired end reads were aligned to the murine genome ([…]2 [27]. Raw count files were generated with featureCounts using a corresponding GTF reference. Differential gene expression analysis was performed with DESeq2 [29]. Transcripts were considered to be differentially expressed if the false discovery rate < 0.05 and Log2FC > 2. When performing differential gene expression for GSEA analysis, the Limma package was used (<5 CPM filtering) with t-scores used for rank statistics. GSEA plots and statistics were generated with FGSEA with custom gene sets. Raw sequencing reads and processed files have been deposited in the GEO repository (data will be uploaded upon manuscript acceptance). […]

T1 sequence (Q15561 whole entry, one chain of several): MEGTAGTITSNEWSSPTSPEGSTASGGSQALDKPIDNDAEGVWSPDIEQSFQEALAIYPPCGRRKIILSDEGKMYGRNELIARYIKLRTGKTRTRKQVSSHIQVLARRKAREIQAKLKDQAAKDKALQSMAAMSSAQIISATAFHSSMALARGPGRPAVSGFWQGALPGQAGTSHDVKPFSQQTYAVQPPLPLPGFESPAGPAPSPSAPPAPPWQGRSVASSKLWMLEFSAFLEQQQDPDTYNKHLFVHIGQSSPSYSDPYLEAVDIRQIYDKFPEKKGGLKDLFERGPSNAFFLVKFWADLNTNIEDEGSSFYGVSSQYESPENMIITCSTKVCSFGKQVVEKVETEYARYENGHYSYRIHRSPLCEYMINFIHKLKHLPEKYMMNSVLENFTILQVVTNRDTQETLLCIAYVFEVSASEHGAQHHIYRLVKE

O=C(O)C1=CC(=C(c2ccc(O)c(C(=O)O)c2)c2ccc(O)c(C(=O)O)c2)C=CC1=O [ATA, aurintricarboxylic acid]
IC50 [1]: 0.035 µM
Kd [2]: 3 µM
IC50 [3]: 160 µM
disruption of the VGLL1-TEAD interaction (in words) [4]: ineffective
TC-dependent increase of TEAD luciferase reporter activity [5]: significantly reduced
transcripts of canonical TAZ target genes (CYR61, CTGF, AMOTL2, ANKRD1) by qPCR [6]: suppression of these transcripts
